From patent US11149017B2, “Solid state forms of apalutamide” (WATSON LABORATORIES INC., priority 2016, dated 2021)

Assays:
[1] = Solubility Study (aqueous buffers, dissolution apparatus, LC analysis); type: physicochemical; conditions: compared to other crystalline forms of Apalutamide, e.g. crystalline form B
Protocol: Solubility of Apalutamide was checked using Dissolution apparatus (Lab India D8000) at 37 deg.
Buffers pH. 1.2, 4.5 and 6.8 were prepared as per the USP 36 Solutions/Buffer Solutions 1209.
About 500 mg of Apalutamide were added to the 100 mL buffer (pH 1.2, 4.5 and 6.8) in individual flasks to obtain saturated suspension and the suspension was stirred with 250 rpm for 24 hours. Suspension was observed though out stirring period. Samples were drawn at different intervals on completion of 15 mins, 1 hrs, 4 hrs and 24 hrs from each flask and filtered through 0.45μ PTFE filter; each solution was analyzed for Apalutamide content by liquid chromatography.

[2] = Bulk density and tapped (tap) density of powder; type: physicochemical; conditions: as compared to form A of Apalutamide
Excerpt: Bulk density as used in the present application is meant the ratio between mass (weight) and bulk volume for the powder blend. Tapped (tap) density is the maximum packing density of a powder (or blend of powders) achieved under the influence of well defined, externally applied forces. The minimum packed volume thus achieved depends on a number of factors including particle size distribution, true density, particle shape and cohesiveness due to surface forces including moisture. Therefore, the tap density of a material can be used to predict both its flow properties and its compressibility. These two parameters are important in the overall tableting process—which requires that loose powders be compacted into a durable solid form with the correct mechanical strength, porosity and dissolution characteristics—and in capsule filling performance.

aqueous solubility [1]	bulk density [2]	tap density [2]	Compound
higher aqueous solubility			CNC(=O)c1ccc(N2C(=S)N(c3cnc(C#N)c(C(F)(F)F)c3)C(=O)C23CCC3)cc1F [form T11, Apalutamide]
	higher bulk density	higher tap density	CNC(=O)c1ccc(N2C(=S)N(c3cnc(C#N)c(C(F)(F)F)c3)C(=O)C23CCC3)cc1F [form T13, Apalutamide]
